Source: US20240025906A1 (NEURON23, INC., priority 2022, published 2024)
Read-outs that look alike come from different tables or passages of the source.

Tests used:
[1] = tested on: JAK1/TYK2 pSTAT5 (Tyr694/699) in THP-1 cell line; experiment: IFNa-stimulated JAK1/TYK2 pSTAT5 (Tyr694/699) inhibition cellular assay, AlphaLISA; format: cell-based; details: Homo sapiens, THP-1 cells, AlphaLISA (Assay B)
Procedure, shortened: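 An eight-point 6-fold titration of compound (0.04–10000 nM final) is given to THP-1 cells for 1 h before 30 min of IFNa exposure. Phospho-STAT5 is read by AlphaLISA at 615 nm. IC50 values are derived by logistic regression with bottom set to 0 and Hill slope set to −1.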

TYK2 JH2 = molecular target: T1, TYK2 JH2 (Homo sapiens, UniProt P29597); experiment: TYK2 JH2 binding assay (KINOMEscan KdELECT competitive binding); details: TYK2 JH2 domain
T1 construct: purchased DiscoverX (KINOMEscan KdELECT service); host or cells: E. coli BL21-derived (T7 phage display) or HEK-293
T1 sequence (P29597 589-875 limits assumed): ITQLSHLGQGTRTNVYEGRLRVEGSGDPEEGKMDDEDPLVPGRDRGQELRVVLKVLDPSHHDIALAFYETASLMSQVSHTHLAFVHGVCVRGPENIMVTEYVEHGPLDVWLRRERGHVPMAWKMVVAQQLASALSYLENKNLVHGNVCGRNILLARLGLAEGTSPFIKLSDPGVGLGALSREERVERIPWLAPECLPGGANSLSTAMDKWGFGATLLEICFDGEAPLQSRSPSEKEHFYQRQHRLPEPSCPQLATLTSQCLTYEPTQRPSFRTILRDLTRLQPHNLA
Procedure, shortened: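 Competition binding, KdELECT format. Kinase (phage-tagged, E. coli BL21-derived host; or HEK-293, DNA-tagged) + ligand-coated streptavidin beads + cpd, 1 h RT, final DMSO 0.9%. Wash, elute 30 min with 0.5 μM non-biotinylated ligand; qPCR readout. Kd: 11-pt, 3-fold series.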

[2] = IFNa-stimulated, read-out: Cellular_THP1_IFNa-pSTATS_TYK2
[3] = KINOMEscan KdELECT (Assay A), read-out: Biochemical TYK2_DiscoverX_JH2_BND_Kd
[4] = IFNa-stimulated pSTAT5 (Tyr694/699), read-out: Cellular_THP1_IFNa-pSTATS_TYK2
[5] = DiscoverX KINOMEscan KdELECT (Assay A), read-out: Biochemical TYK2_DiscoverX_JH2_BND_Kd
[6] = IFNa-stimulated, read-out: Cellular THP1_IFNa-pSTATS_IC50
[7] = KINOMEscan KdELECT (Assay A), read-out: Biochemical TYK2_JH2_Kd

Question: For `CNc1ncc(C#Cc2ccc(OC(C)CC3COC3)cc2)c2cc(NC(=O)C3CC3)ncc12` (stereo not drawn) [Example 713, N-(8-(methylamino)-5-((4-((1-(oxetan-3-yl)propan-2-yl)oxy)phenyl)ethynyl)-2,7-naphthyridin-3-yl)cyclopropanecarboxamide], which IC50 [1, 2] is on record?
Answer: ≤ 500 nM

Question: And the Kd (TYK2 JH2; [3])?
Answer: ≤ 100 nM

Question: Which IC50 [1, 2] does the source give for `CNc1ncc(C#Cc2ccc(OC)cn2)c2cc(NC(=O)[C@H]3C[C@H]3C(F)F)ncc12` (single isomer, unassigned) [Example 745] here?
Answer: ≤ 500 nM

Question: And the Kd (TYK2 JH2; [3])?
Answer: ≤ 100 nM

Question: How did the IC50 [1, 4] turn out when `CNc1ncc(-c2nc3ccc(N4CCOC(COC)C4)cn3n2)c2cc(NC(=O)C3CC3)ncc12` (single isomer, unassigned) [Example 1023] was run?
Answer: ≤ 500 nM

Question: What about the Kd (TYK2 JH2; [3]) of the same compound?
Answer: ≤ 100 nM

Question: What does the source list for `CNc1ncc(-c2nc3ccc(CO)cc3o2)c2cc(NC(=O)C3CC3)ncc12` [Example 254, N-(5-(6-(hydroxymethyl)benzo[d]oxazol-2-yl)-8-(methylamino)-2,7-naphthyridin-3-yl)cyclopropanecarboxamide]?
Answer: IC50 [1, 2]: ≤ 500 nM; Kd (TYK2 JH2; [5]): ≤ 100 nM

Question: How did the IC50 [1, 6] turn out when `CNc1ncc(-c2cscn2)c2cc(NC(=O)C3CC3)ncc12` [Example 65, N-(8-(methylamino)-5-(thiazol-4-yl)-2,7-naphthyridin-3-yl)cyclopropanecarboxamide] was run?
Answer: > 500 nM

Question: And the Kd (TYK2 JH2; [7])?
Answer: ≤ 100 nM

Question: What does the source list for `CNc1ncc(C#Cc2ccc3nnn(C(C)C)c3c2)c2cc(NC(=O)C3CC3)ncc12` [Example 681, N-(5-((1-isopropyl-1H-benzo[d][1,2,3]triazol-6-yl)ethynyl)-8-(methylimino)-2,7-naphthyridin-3-yl)cyclopropanecarboxamide]?
Answer: IC50 [1, 2]: ≤ 500 nM; Kd (TYK2 JH2; [3]): ≤ 100 nM

Question: `CNc1ncc(-c2nc3cc(N4CC(F)C4)ccc3o2)c2cc(NC(=O)C3CC3)ncc12` [Example 284, N-(5-(5-(3-fluoroazetidin~1-yl)benzo[d]oxazol-2-y1)-8-(methylamino)-2,7-naphthyridin-3-yl)cyclopropanecarboxamide] was tested. Which IC50 [1, 2] did it give?
Answer: ≤ 500 nM

Question: And the Kd (TYK2 JH2; [5])?
Answer: ≤ 100 nM

Question: How did the IC50 [1, 2] turn out when `CNc1ncc(-c2nc3cc(OC)ccc3o2)c2cc(NC(=O)[C@@H]3C[C@@H]3CO)ncc12` (single isomer, unassigned) [Example 468] was run?
Answer: ≤ 500 nM

Question: What about the Kd (TYK2 JH2; [5]) of the same compound?
Answer: ≤ 100 nM

Question: What does the source list for `CNc1ncc(C#Cc2ccc3nnn(C)c3c2)c2cc(Nc3ccccn3)ncc12` [Example 751, N^1-methyl-4-((1-methyl-1H-benzo[d][1,2,3]triazol-6-yl)ethynyl)-N^6-(pyridin-2-yl)-2,7-naphthyridine-1,6-diamine]?
Answer: IC50 [1, 2]: ≤ 500 nM; Kd (TYK2 JH2; [3]): ≤ 100 nM

Question: With `CNc1ncc(-c2nc3cc(C4CCN(C)CC4)ccc3o2)c2cc(NC(=O)C3CC3)ncc12` [Example 361, N-(8-(methylamino)-5-(5-(1-methylpiperidin-4-yl)benzo[d]oxazol-2-yl)-2,7-naphthyridin-3-yl)cyclopropanecarboxamide] as the compound, how does the IC50 [1, 2] read?
Answer: ≤ 500 nM

Question: What about the Kd (TYK2 JH2; [5]) of the same compound?
Answer: ≤ 100 nM

Question: Which IC50 [1, 6] does the source give for `CNc1ncc(-c2ccccc2C(N)=O)c2cc(NC(=O)C3CC3)ncc12` [Example 41, 2-(6-(cyclopropanecarboxamido)-1-(methylamino)-2,7-naphthyridin-4-yl)benzamide] here?
Answer: > 500 nM

Question: And the Kd (TYK2 JH2; [7])?
Answer: 100 to 1000 nM

Question: Which IC50 [1, 4] does the source give for `CNc1ncc(C#Cc2ccc(-n3c(=O)ccn3C)cn2)c2cc(NC(=O)C3CC3)ncc12` [Example 1001, N-(5-((5-(2-methyl-5-oxo-2,5-dihydro-1H-pyrazol-1-yl)pyridine-2-yl)ethynyl)-8-(methylamino)-2,7-nahphthyridin-3-yl)cyclopropanecarboxamide] here?
Answer: ≤ 500 nM

Question: And the Kd (TYK2 JH2; [3])?
Answer: ≤ 100 nM

Question: With `CNc1ncc(C#Cc2ccc3oc(C)cc3c2)c2cc(NC(=O)C3CC3)ncc12` [Example 813, N-(8-(methylamino)-5-((2-methylbenzofuran-5-yl)ethynyl)-2,7-naphthyridin-3-yl)cyclopropanecarboxamide] as the compound, how does the IC50 [1, 2] read?
Answer: ≤ 500 nM

Question: What about the Kd (TYK2 JH2; [3]) of the same compound?
Answer: ≤ 100 nM

Question: For `CNc1ncc(-c2nc3cc(N4CCC(F)(F)CC4)ccc3o2)c2cc(NC(=O)C3CC3)ncc12` [Example 301, N-(5-(5-(4,4-difluoropiperidin-1-yl)benzo[d]oxazol-2-y1)-8-(methylamino)-2,7-naphthyridin-3-yl)cyclopropanecarboxamide], which IC50 [1, 2] is on record?
Answer: ≤ 500 nM

Question: And the Kd (TYK2 JH2; [5])?
Answer: ≤ 100 nM

Question: For `CNc1ncc(-c2nc3ccc(N4CC5CN(C)CC(C4)O5)cn3n2)c2cc(NC(=O)C3CC3)ncc12` [Example 504, N-(5-(6-(7-methyl-9-oxa-3,7-diazabicyclo[3.3.1]nonan-3-yl)-[1,2,4]triazolo[1,5-a]pyridin-2-yl)-8-(methylamino)-2,7-naphthyridin-3-yl)cyclopropanecarboxamide], which IC50 [1, 2] is on record?
Answer: ≤ 500 nM

Question: What about the Kd (TYK2 JH2; [5]) of the same compound?
Answer: ≤ 100 nM

Question: Which results are given for `CNc1ncc(-c2nc3ccc(N4CCO[C@@H](C)C4)c(F)n3n2)c2cc(NC(=O)C3CC3)ncc12` [Example 508, (S)—N-(5-(5-fluoro-6-(2-methylmorpholino)-[1,2,4]triazolo[1,5-a]pyridin-2-yl)-8-(methylamino)-2,7-naphthyridin-3-yl)cyclopropanecarboxamide]?
Answer: IC50 [1, 2]: ≤ 500 nM; Kd (TYK2 JH2; [5]): ≤ 100 nM

Question: How did the IC50 [1, 2] turn out when `CNc1ncc(-c2nc3cc(C4(C)CCCO4)ccc3o2)c2cc(NC(=O)C3CC3)ncc12` (single isomer, unassigned) [Example 949] was run?
Answer: ≤ 500 nM

Question: And the Kd (TYK2 JH2; [3])?
Answer: ≤ 100 nM

Question: How did the IC50 [1, 6] turn out when `CNc1ncc(-c2ncsc2C)c2cc(NC(=O)C3CC3)ncc12` [Example 26, N-(8-(methylamino)-5-(5-methylthiazol-4-yl)-2,7-naphthyridin-3-yl)cyclopropanecarboxamide] was run?
Answer: > 500 nM

Question: What about the Kd (TYK2 JH2; [7]) of the same compound?
Answer: ≤ 100 nM

Question: What does the source list for `CNc1ncc(C#Cc2ccc(S(C)(=O)=O)cc2)c2cc(NC(=O)C3CC3)ncc12` [Example 610, N-(8-(methylamino)-5-((4-(methylsulfonyl)phenyl)ethynyl)-2,7-naphthyridin-3-yl)cyclopropanecarboxamide]?
Answer: IC50 [1, 2]: ≤ 500 nM; Kd (TYK2 JH2; [3]): ≤ 100 nM

Question: How did the IC50 [1, 2] turn out when `[2H]C([2H])([2H])Nc1ncc(-c2nc3ccc(OC)cn3n2)c2cc(NC(=O)C3CC3)ncc12` [Example 511, N-(5-(6-methoxy-[1,2,4]triazolo[1,5-a]pyridin-2-yl)-8-((methyl-d3)amino)-2,7-naphthyridin-3-yl)cyclopropanecarboxamide] was run?
Answer: ≤ 500 nM

Question: What about the Kd (TYK2 JH2; [5]) of the same compound?
Answer: ≤ 100 nM

Question: Which results are given for `CNc1ncc(-c2nc3ccc(N4CC5COCC(C5)C4)cn3n2)c2cc(NC(=O)C3CC3)ncc12` [Example 583, N-(5-(6-(3-oxa-7-azabicyclo[3.3.1]nonan-7-yl)-[1,2,4]triazolo[1,5-a]pyridin-2-yl)-8-(methylamino)-2,7-naphthyridin-3-yl)cyclopropanecarboxamide]?
Answer: IC50 [1, 2]: ≤ 500 nM; Kd (TYK2 JH2; [5]): ≤ 100 nM

Question: For `CNc1ncc(C#Cc2ccnc(Cl)c2)c2cc(NC(=O)C3CC3)ncc12` [Example 992, N-[5-[2-(2-chloro-4-pyridyl)ethynyl]-8-(methylamino)-2,7-naphthyridin-3-yl]cyclopropanecarboxamide], which IC50 [1, 2] is on record?
Answer: ≤ 500 nM

Question: What about the Kd (TYK2 JH2; [3]) of the same compound?
Answer: ≤ 100 nM

Question: Which IC50 [1, 2] does the source give for `CNc1ncc(C#Cc2ccc3occc3n2)c2cc(NC(=O)C3CC3)ncc12` [Example 666, N-(5-(furo[3,2-b]pyridin-5-ylethynyl)-8-(methylamino)-2,7-naphthyridin-3-yl)cyclopropanecarboxamide] here?
Answer: ≤ 500 nM

Question: And the Kd (TYK2 JH2; [3])?
Answer: ≤ 100 nM

Question: Which IC50 [1, 2] does the source give for `CNc1ncc(-c2nc3cc(N4CCO[C@H](C(C)(F)F)C4)ccc3o2)c2cc(NC(=O)C3CC3)ncc12` (single isomer, unassigned) [Example 331] here?
Answer: ≤ 500 nM

Question: And the Kd (TYK2 JH2; [5])?
Answer: ≤ 100 nM

Question: Which IC50 [1, 2] does the source give for `CNc1ncc(C#Cc2cccnn2)c2cc(NC(=O)C3CC3)ncc12` [Example 641, N-(8-(methylamino)-5-(pyridazin-3-ylethynyl)-2,7-naphthyridin-3-yl)cyclopropanecarboxamide] here?
Answer: ≤ 500 nM

Question: And the Kd (TYK2 JH2; [3])?
Answer: ≤ 100 nM

Question: Which results are given for `CNc1ncc(-c2nc3ccc(N4C[C@@H]5C[C@H]4CO5)cn3n2)c2cc(NC(=O)C3CC3)ncc12` [Example 488, N-(5-(6-((1S,4S)-2-oxa-5-azabicyclo[2.2.1]heptan-5-yl)-[1,2,4]triazolo[1,5-a]pyridin-2-yl)-8-(methylamino)-2,7-naphthyridin-3-yl)cyclopropanecarboxamide]?
Answer: IC50 [1, 2]: ≤ 500 nM; Kd (TYK2 JH2; [5]): ≤ 100 nM

Question: With `CNc1ncc(CC(F)(F)F)c2cc(NC(=O)C3CC3)ncc12` [Example 88, N-(8-(methylamino)-5-(2,2,2-trifluoroethyl)-2,7-naphthyridin-3-yl)cyclopropanecarboxamide] as the compound, how does the IC50 [1, 6] read?
Answer: > 500 nM

Question: And the Kd (TYK2 JH2; [7])?
Answer: ≤ 100 nM

Question: `CNc1ncc(-c2nc3cccc(Cl)n3n2)c2cc(NC(=O)C3CC3)ncc12` [Example 490, N-(5-(5-chloro-[1,2,4]triazolo[1,5-a]pyridin-2-yl)-8-(methylamino)-2,7-naphthyridin-3-yl)cyclopropanecarboxamide] was tested. Which IC50 [1, 2] did it give?
Answer: ≤ 500 nM

Question: What about the Kd (TYK2 JH2; [5]) of the same compound?
Answer: ≤ 100 nM

Question: `CNc1ncc(C#Cc2ccc3cnn(C)c3c2)c2cc(NC(=O)C3CC3)ncc12` [Example 617] was tested. Which IC50 [1, 2] did it give?
Answer: ≤ 500 nM

Question: What about the Kd (TYK2 JH2; [3]) of the same compound?
Answer: ≤ 100 nM

Question: For `CNc1ncc(-c2nc3cc(O[C@H]4C[C@@H](C#N)C4)ccc3o2)c2cc(NC(=O)C3CC3)ncc12` [Example 232, N-(5-(5-((1s,3s)-3-cyanocyclobutoxy)benzo[d]oxazol-2-yl)-8-(methylamino)-2,7-naphthyridin-3-yl)cyclopropanecarboxamide], which IC50 [1, 2] is on record?
Answer: ≤ 500 nM

Question: And the Kd (TYK2 JH2; [5])?
Answer: ≤ 100 nM
